Source: ChEMBL document CHEMBL1123631, “Synthesis and gastrointestinal pharmacology of the 4-fluoro analogue of enisoprost” (1987)

Columns and labels:
Assay type in all cases: functional
Canis familiaris [1] = experiment: Gastric antisecretory activity was determined in food stimulated Pavlov dogs by intrapouch administration ig; Value ranges from 6.2-15.3; conditions: Canis lupus familiaris
Rattus norvegicus = species: Rattus norvegicus; experiment: Mucosal protective activity in rats was measured as minimum effective dose (MED); ig; conditions: po, read-out: MED
Canis familiaris [2] = experiment: Gastric antisecretory activity was determined in food stimulated Pavlov dogs by intrapouch administration ig; Value ranges from 0.017-0.032; conditions: Canis lupus familiaris

Row | Structure (SMILES) | ED50 (Canis familiaris [1]) [µg/kg] | minimal effective dose (Rattus norvegicus) [µg/kg] | ED50 (Canis familiaris [2]) [µg/kg]
1 | CCCCC(C)(O)C/C=C/[C@H]1[C@H](O)CC(=O)[C@@H]1CC/C=C(/F)CCC(=O)OC (some centres undefined) | 9.7 | 50 | –
2 | CCCCC(C)(O)C/C=C/[C@H]1[C@H](O)CC(=O)[C@@H]1CC/C=C\CCC(=O)OC (some centres undefined) [ENISOPROST] | – | 1 | 0.023
